Measured values taken from PubChem BioAssay AID2060905 (Molecular Pharmacology Branch, DTP, NCI, 2025).

Tested on: 282377-053-R-J1-PDC complex spheroid viability
Experiment: Anticancer human tumor 282377-053-R-J1-PDC patient-derived colon adenocarcinoma cell line growth inhibition [RAS]
Conditions: for IC50: curve of first compound; for viability, T/C: stronger effect = lower value
Method in brief: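 Agents were tested in combination matrices in half-log decrements from a top concentration at or near clinical Cmax (10 microM if undetermined). Targets were multi-cell spheroids of tumour lines plus HUVEC and MSC stromal cells.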
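Further: spheroids exposed to agents for seven days before readout.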
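Wherever viability, T/C is given: luminescence viability as percent of DMSO vehicle control wells.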

Compound: CC1(C)CCC(Nc2ncc(C(F)(F)F)c(-c3c[nH]c4c(P(C)(C)=O)c(C#N)ccc34)n2)CN1 (centres undefined) + C#Cc1c(F)ccc2cc(O)cc(-c3ncc4c(N5CC6CCC(C5)N6)nc(OCC56CCCN5CC(F)C6)nc4c3F)c12
- IC50 (second compound 0.0316 µM): > 300 nM
- IC50 (second compound 0.1 µM): > 300 nM
- IC50 (second compound 0.316 µM): > 300 nM
- IC50 (second compound 1 µM): > 300 nM
- IC50 (second compound 3.16 µM): > 300 nM
- IC50 (second compound 10 µM): > 300 nM
- viability, T/C (second compound 0.0316 µM, first compound 0.000949 µM): 142%
- viability, T/C (second compound 0.0316 µM, first compound 0.003 µM): 109%
- viability, T/C (second compound 0.0316 µM, first compound 0.00949 µM): 91.4%
- viability, T/C (second compound 0.0316 µM, first compound 0.03 µM): 69%
- viability, T/C (second compound 0.0316 µM, first compound 0.0949 µM): 71.2%
- viability, T/C (second compound 0.0316 µM, first compound 0.3 µM): 66.8%
- viability, T/C (second compound 0.1 µM, first compound 0.000949 µM): 103%
- viability, T/C (second compound 0.1 µM, first compound 0.003 µM): 132%
- viability, T/C (second compound 0.1 µM, first compound 0.00949 µM): 87.1%
- viability, T/C (second compound 0.1 µM, first compound 0.03 µM): 72.6%
- viability, T/C (second compound 0.1 µM, first compound 0.0949 µM): 71.9%
- viability, T/C (second compound 0.1 µM, first compound 0.3 µM): 72.5%
- viability, T/C (second compound 0.316 µM, first compound 0.000949 µM): 118%
- viability, T/C (second compound 0.316 µM, first compound 0.003 µM): 92.6%
- viability, T/C (second compound 0.316 µM, first compound 0.00949 µM): 92.3%
- viability, T/C (second compound 0.316 µM, first compound 0.03 µM): 67.1%
- viability, T/C (second compound 0.316 µM, first compound 0.0949 µM): 71.9%
- viability, T/C (second compound 0.316 µM, first compound 0.3 µM): 57.8%
- viability, T/C (second compound 1 µM, first compound 0.000949 µM): 112%
- viability, T/C (second compound 1 µM, first compound 0.003 µM): 110%
- viability, T/C (second compound 1 µM, first compound 0.00949 µM): 96.9%
- viability, T/C (second compound 1 µM, first compound 0.03 µM): 80.4%
- viability, T/C (second compound 1 µM, first compound 0.0949 µM): 74.9%
- viability, T/C (second compound 1 µM, first compound 0.3 µM): 67.7%
- viability, T/C (second compound 3.16 µM, first compound 0.000949 µM): 93%
- viability, T/C (second compound 3.16 µM, first compound 0.003 µM): 103%
- viability, T/C (second compound 3.16 µM, first compound 0.00949 µM): 98.8%
- viability, T/C (second compound 3.16 µM, first compound 0.03 µM): 75.4%
- viability, T/C (second compound 3.16 µM, first compound 0.0949 µM): 83.6%
- viability, T/C (second compound 3.16 µM, first compound 0.3 µM): 72.9%
- viability, T/C (second compound 10 µM, first compound 0.000949 µM): 113%
- viability, T/C (second compound 10 µM, first compound 0.003 µM): 87.3%
- viability, T/C (second compound 10 µM, first compound 0.00949 µM): 98%
- viability, T/C (second compound 10 µM, first compound 0.03 µM): 88.4%
- viability, T/C (second compound 10 µM, first compound 0.0949 µM): 98.6%
- viability, T/C (second compound 10 µM, first compound 0.3 µM): 76.7%

Compound: O=C(c1ccc(F)c(F)c1Nc1ccc(I)cc1F)N1CC(O)([C@@H]2CCCCN2)C1 + C#Cc1c(F)ccc2cc(O)cc(-c3ncc4c(N5CC6CCC(C5)N6)nc(OCC56CCCN5CC(F)C6)nc4c3F)c12
- IC50 (second compound 0.0316 µM): 80 nM
- IC50 (second compound 0.1 µM): 63.5 nM
- IC50 (second compound 0.316 µM): 50.4 nM
- IC50 (second compound 1 µM): 45.5 nM
- IC50 (second compound 3.16 µM): 42.5 nM
- IC50 (second compound 10 µM): 24.9 nM
- viability, T/C (second compound 0.0316 µM, first compound 0.00316 µM): 92%
- viability, T/C (second compound 0.0316 µM, first compound 0.01 µM): 73%
- viability, T/C (second compound 0.0316 µM, first compound 0.0316 µM): 80.9%
- viability, T/C (second compound 0.0316 µM, first compound 0.1 µM): 42.3%
- viability, T/C (second compound 0.0316 µM, first compound 0.316 µM): 27.6%
- viability, T/C (second compound 0.0316 µM, first compound 1 µM): 19.7%
- viability, T/C (second compound 0.1 µM, first compound 0.00316 µM): 86.3%
- viability, T/C (second compound 0.1 µM, first compound 0.01 µM): 75.2%
- viability, T/C (second compound 0.1 µM, first compound 0.0316 µM): 62.5%
- viability, T/C (second compound 0.1 µM, first compound 0.1 µM): 42.5%
- viability, T/C (second compound 0.1 µM, first compound 0.316 µM): 26%
- viability, T/C (second compound 0.1 µM, first compound 1 µM): 16.9%
- viability, T/C (second compound 0.316 µM, first compound 0.00316 µM): 87.7%
- viability, T/C (second compound 0.316 µM, first compound 0.01 µM): 77.5%
- viability, T/C (second compound 0.316 µM, first compound 0.0316 µM): 58.5%
- viability, T/C (second compound 0.316 µM, first compound 0.1 µM): 37.2%
- viability, T/C (second compound 0.316 µM, first compound 0.316 µM): 23%
- viability, T/C (second compound 0.316 µM, first compound 1 µM): 15.6%
- viability, T/C (second compound 1 µM, first compound 0.00316 µM): 75.3%
- viability, T/C (second compound 1 µM, first compound 0.01 µM): 77.1%
- viability, T/C (second compound 1 µM, first compound 0.0316 µM): 59.1%
- viability, T/C (second compound 1 µM, first compound 0.1 µM): 29%
- viability, T/C (second compound 1 µM, first compound 0.316 µM): 20.5%
- viability, T/C (second compound 1 µM, first compound 1 µM): 14.9%
- viability, T/C (second compound 3.16 µM, first compound 0.00316 µM): 79.8%
- viability, T/C (second compound 3.16 µM, first compound 0.01 µM): 75.6%
- viability, T/C (second compound 3.16 µM, first compound 0.0316 µM): 56.4%
- viability, T/C (second compound 3.16 µM, first compound 0.1 µM): 30.5%
- viability, T/C (second compound 3.16 µM, first compound 0.316 µM): 20.7%
- viability, T/C (second compound 3.16 µM, first compound 1 µM): 15.6%
- viability, T/C (second compound 10 µM, first compound 0.00316 µM): 97.2%
- viability, T/C (second compound 10 µM, first compound 0.01 µM): 75.1%
- viability, T/C (second compound 10 µM, first compound 0.0316 µM): 41.8%
- viability, T/C (second compound 10 µM, first compound 0.1 µM): 25.4%
- viability, T/C (second compound 10 µM, first compound 0.316 µM): 17.5%
- viability, T/C (second compound 10 µM, first compound 1 µM): 12.1%
